Reference: the NIST ThermoML archive (doi:10.1016/j.jct.2009.07.002)

Experiment: isobaric coefficient of expansion
Settings: Liquid, DSC with Pressure Shift

CCCCCCCCCCO [decan-1-ol]
isobaric coefficient of expansion
Settings | 298.15 K | 308.15 K | 318.15 K | 328.15 K | 338.15 K | 348.15 K
5000 kPa | 0.000809 1/K | 0.000822 1/K | 0.000837 1/K | 0.00085 1/K | 0.000869 1/K | 0.000895 1/K
10000 kPa | 0.000792 1/K | 0.0008 1/K | 0.000814 1/K | 0.000827 1/K | 0.000843 1/K | 0.000863 1/K
15000 kPa | 0.000776 1/K | 0.000784 1/K | 0.000795 1/K | 0.000803 1/K | 0.000819 1/K | 0.000832 1/K
20000 kPa | 0.000755 1/K | 0.000764 1/K | 0.000775 1/K | 0.000781 1/K | 0.000799 1/K | 0.000812 1/K
25000 kPa | 0.000739 1/K | 0.000748 1/K | 0.000758 1/K | 0.000765 1/K | 0.000779 1/K | 0.000792 1/K
30000 kPa | 0.000725 1/K | 0.00073 1/K | 0.000743 1/K | 0.000748 1/K | 0.00076 1/K | 0.000775 1/K
35000 kPa | 0.000715 1/K | 0.000719 1/K | 0.000726 1/K | 0.000732 1/K | 0.000745 1/K | 0.000755 1/K
40000 kPa | 0.000702 1/K | 0.000706 1/K | 0.000711 1/K | 0.000719 1/K | 0.000729 1/K | 0.000738 1/K
45000 kPa | 0.00069 1/K | 0.00069 1/K | 0.000699 1/K | 0.000704 1/K | 0.000713 1/K | 0.000722 1/K
50000 kPa | 0.000679 1/K | 0.00068 1/K | 0.000688 1/K | 0.000691 1/K | 0.000701 1/K | 0.000708 1/K
55000 kPa | 0.000669 1/K | 0.000669 1/K | 0.000676 1/K | 0.000679 1/K | 0.000689 1/K | 0.000697 1/K

CCO [ethanol]
isobaric coefficient of expansion
Settings | 278.15 K | 288.15 K | 298.15 K | 308.15 K | 318.15 K | 328.15 K | 338.15 K | 348.15 K
5000 kPa | 0.00102 1/K | 0.00103 1/K | 0.00106 1/K | 0.00109 1/K | 0.00112 1/K | 0.00116 1/K | 0.00121 1/K | 0.00127 1/K
10000 kPa | 0.000988 1/K | 0.00101 1/K | 0.00103 1/K | 0.00105 1/K | 0.00109 1/K | 0.00112 1/K | 0.00116 1/K | 0.00122 1/K
15000 kPa | 0.000966 1/K | 0.000983 1/K | 0.001 1/K | 0.00102 1/K | 0.00105 1/K | 0.00108 1/K | 0.00112 1/K | 0.00116 1/K
20000 kPa | 0.000948 1/K | 0.000956 1/K | 0.000973 1/K | 0.000994 1/K | 0.00102 1/K | 0.00105 1/K | 0.00108 1/K | 0.00112 1/K
25000 kPa | 0.000928 1/K | 0.000936 1/K | 0.000952 1/K | 0.000971 1/K | 0.000988 1/K | 0.00102 1/K | 0.00105 1/K | 0.00108 1/K
30000 kPa | 0.000908 1/K | 0.000918 1/K | 0.000929 1/K | 0.000944 1/K | 0.000966 1/K | 0.000988 1/K | 0.00102 1/K | 0.00105 1/K
35000 kPa | 0.000892 1/K | 0.000899 1/K | 0.000908 1/K | 0.000921 1/K | 0.000942 1/K | 0.000962 1/K | 0.000988 1/K | 0.00102 1/K
40000 kPa | 0.000882 1/K | 0.000875 1/K | 0.000887 1/K | 0.000903 1/K | 0.000918 1/K | 0.000936 1/K | 0.000958 1/K | 0.000984 1/K
45000 kPa | 0.000863 1/K | 0.000866 1/K | 0.000871 1/K | 0.000883 1/K | 0.000898 1/K | 0.000912 1/K | 0.000935 1/K | 0.000959 1/K
50000 kPa | 0.000852 1/K | 0.00085 1/K | 0.000853 1/K | 0.000865 1/K | 0.000882 1/K | 0.000894 1/K | 0.000911 1/K | 0.000938 1/K
55000 kPa | 0.000839 1/K | 0.000831 1/K | 0.000839 1/K | 0.000848 1/K | 0.000863 1/K | 0.000877 1/K | 0.000891 1/K | 0.000915 1/K
